In PMC4929710, “Specificity and mechanism of action of alpha-helical membrane-active peptides interacting with model and biological membranes by single-molecule force spectroscopy” (Scientific Reports, 2016):

Experiments:
bacteria = settings: text summary of Table 1, strain not specified
Experimental: Minimal inhibitory concentrations (MICs) were used to represent the antimicrobial activity of MAPs and were determined by the standard microtiter dilution method. Four bacterial strains including two gram-negative bacterial strains of E. coli and P. aeruginosa, and two gram-positive bacterial strains of S. aureus and S. epidermidis were selected as representative prokaryotes. A single bacterial colony was picked and cultured in Mueller–Hinton (MH) medium for 18–20 h. The bacterial solution was diluted in the same medium for a final inoculum of 5 × 10^5 colony-forming units (CFU)/mL and placed in 96-well plates with 90 μL per well. Then, 10 μL of peptides was added. MICs were determined as the lowest peptide concentration that inhibited bacterial growth after incubation for 24 h at 37 °C. All assays were repeated in triplicate. GM is the geometric mean of MIC values from two gram-positive bacteria strains or two gram-negative bacteria strains in this table.

[1] = test system: human red blood cells (hRBCs); assay: Hemolytic activity assay (MHC); type: cell-based; settings: 1% final hRBCs in PBS (70 μL of 2% + 70 μL peptide), 37 °C, 2 h, absorbance 578 nm
Experimental: Peptide samples were serially diluted with phosphate-buffered saline (PBS) and added to 96-well plates (round bottom) with 70 μL per well. Healthy human red blood cells (hRBCs) were collected using an anticoagulation tube with EDTAK2 and centrifuged at 1,000 rpm for 5 min. The erythrocytes were washed three times, resuspended in PBS, and then diluted to a concentration of 2% in PBS. A total of 70 μL of 2% erythrocytes was added to each well and incubated at 37 °C for 2 h. The plates were centrifuged for 10 min at 3,000 rpm and the supernatant was transferred to a 96-well plate (flat bottom). The release of hemoglobin was determined by measuring the absorbance of the supernatant at 578 nm. The hemolytic activity was determined as the minimal peptide concentration that caused hemolysis [minimal hemolytic concentration (MHC)]. Erythrocytes in PBS and distilled water were used as the control of 0% and 100% hemolysis, respectively.

| Compound | MIC value (bacteria) | MHC (minimal hemolytic concentration) [1] [µM] |
| --- | --- | --- |
| Ac-KWKSFAKTFKSAKKTVAHTALKAISS-NH2 [L6A/L17A] | approximately 125 μM |  |
| CC[C@H](C)[C@H](NC(=O)[C@H](C)NC(=O)[C@H](CCCCN)NC(=O)[C@H](CC(C)C)NC(=O)[C@H](C)NC(=O)[C@@H](NC(=O)[C@H](Cc1cnc[nH]1)NC(=O)[C@H](CC(C)C)NC(=O)[C@@H](NC(=O)[C@@H](NC(=O)[C@H](CCCCN)NC(=O)[C@H](CCCCN)NC(=O)[C@H](C)NC(=O)[C@H](CO)NC(=O)[C@H](CCCCN)NC(=O)[C@H](Cc1ccccc1)NC(=O)[C@@H](NC(=O)[C@H](CCCCN)NC(=O)[C@H](CC(C)C)NC(=O)[C@H](Cc1ccccc1)NC(=O)[C@H](CO)NC(=O)[C@H](CCCCN)NC(=O)[C@H](Cc1c[nH]c2ccccc12)NC(=O)[C@H](CCCCN)NC(C)=O)[C@@H](C)O)[C@@H](C)O)C(C)C)[C@@H](C)O)C(=O)N[C@@H](CO)C(=O)N[C@@H](CO)C(N)=O [Peptide V13K] |  | 250 |
